According to publication PMC6086891, “Adenosine Kinase couples sensing of cellular potassium depletion to purine metabolism” (Scientific Reports, 2018):
Blank lines part the entries; values can stand above or below the compound they belong to.

How the values were obtained:
Assay type in all cases: binding
Adenosine Kinase (mADK) [1] = molecular target: T1, Adenosine Kinase (mADK) (Mus musculus, UniProt P55264); experiment: X-ray crystal structure, […] Å binary complex (also the […] Å ternary complex 5KB5); kinetics show competitive inhibition against ATP; design: gene Adk; Δ19mADK, Leu20 – Phe360 (binary complex); full-length mADK (ternary complex)
Target sequence in this assay (P55264 20-360): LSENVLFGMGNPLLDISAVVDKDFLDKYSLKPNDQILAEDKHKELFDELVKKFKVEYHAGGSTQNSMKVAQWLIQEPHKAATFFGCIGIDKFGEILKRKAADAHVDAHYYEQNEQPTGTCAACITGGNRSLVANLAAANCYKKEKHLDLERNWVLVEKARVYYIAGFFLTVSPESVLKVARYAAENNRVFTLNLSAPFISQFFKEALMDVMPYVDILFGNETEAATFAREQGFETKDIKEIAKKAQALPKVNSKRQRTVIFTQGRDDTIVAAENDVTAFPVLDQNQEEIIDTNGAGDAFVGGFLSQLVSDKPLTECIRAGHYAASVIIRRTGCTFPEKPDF

Adenosine Kinase (mADK) [2] = molecular target: T1, Adenosine Kinase (mADK); experiment: X-ray crystal structure, […] Å ternary complex mADK:ADO:ADP; design: gene Adk; full-length mADK (Met1 to His362); model residues 20 to 360
Target sequence in this assay (P55264 whole entry, the tested form may be a part): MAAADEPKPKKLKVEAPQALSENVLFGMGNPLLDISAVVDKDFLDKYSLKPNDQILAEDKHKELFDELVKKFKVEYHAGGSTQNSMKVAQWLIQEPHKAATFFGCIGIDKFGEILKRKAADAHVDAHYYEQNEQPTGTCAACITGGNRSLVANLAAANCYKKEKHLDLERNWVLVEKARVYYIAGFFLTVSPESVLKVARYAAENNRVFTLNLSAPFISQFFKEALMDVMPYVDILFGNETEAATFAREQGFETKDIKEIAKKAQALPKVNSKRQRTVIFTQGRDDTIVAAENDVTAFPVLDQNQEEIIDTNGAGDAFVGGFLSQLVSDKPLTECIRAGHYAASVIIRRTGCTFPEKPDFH

Adenosine Kinase (mADK) [3] = molecular target: T2, Adenosine Kinase (mADK) (Mus musculus, UniProt P55264, D310P); experiment: 2D […]-1H HSQC titration and 1D 1H STD NMR (weaker than wild type)
T2 construct: gene Adk
T2 sequence (P55264 whole entry D310P): as the sequence (P55264 whole entry, the tested form may be a part) above, with D310P counted along it

Adenosine Kinase (mADK) [4] = molecular target: T1, Adenosine Kinase (mADK); experiment: 2D […]-1H HSQC titration and 1D 1H STD NMR; design: gene Adk
Target sequence in this assay (P55264 whole entry, the tested form may be a part): as the sequence (P55264 whole entry, the tested form may be a part) above

SMILES: Nc1ncnc2c1ncn2[C@@H]1O[C@H](CO)[C@@H](O)[C@H]1O [ADO, adenosine]
- X-ray crystal structure, 1.2 Å binary complex (also the 1.8 Å ternary complex 5K) (Adenosine Kinase (mADK) [1]): In the mADK:ADO complex, electronic density for ADO was identified in the BS1 site

- X-ray crystal structure, 1.8 Å ternary complex mADK:ADO:ADP (Adenosine Kinase (mADK) [2]): In this complex, ADP occupies BS1.
SMILES: Nc1ncnc2c1ncn2[C@@H]1O[C@H](COP(=O)(O)OP(=O)(O)O)[C@@H](O)[C@H]1O [ADP, adenosine-5′-diphosphate]

SMILES: Nc1ncnc2c1ncn2[C@@H]1O[C@H](CO[P@](=O)(O)O[P@](=O)(O)O[P@@](=O)(O)S)[C@@H](O)[C@H]1O [ATPγS, adenosine triphosphate-gamma-S]
- 2D 15N-1H HSQC titration and 1D 1H STD NMR (weaker than wild type) (Adenosine Kinase (mADK) [3]): 1D ^1H STD NMR indicate that the D310P mutant has an unfavorable interaction with ATPγS relative to the wild-type mADK
- 2D 15N-1H HSQC titration and 1D 1H STD NMR (Adenosine Kinase (mADK) [4]): ATPγS caused significant chemical shift changes in the wild-type mADK, especially in the residues around the BS1 site
